Measurements taken from patent US7723088B2, “DNA sequences involved in prenylflavonoid biosynthesis in hops and their use in modifying prenylflavonoid production in plants” (priority 2005, dated 2010).
“Also recorded” adds a separate entry of the source.

Columns and labels:
[1] = target: T1, HIOMT2 (OMT2) O-methyltransferase (Humulus lupulus, UniProt B0ZB56); test: 14C-SAM methylation enzyme assay with recombinant HIOMT2 (OMT2) insect cell lysate; type: biochemical; conditions: recombinant enzyme from Sf9 insect cell lysate, 14C-SAM methyl donor, ethyl acetate extract, scintillation counting
T1 construct: The open reading frame of each enzyme was cloned into the baculovirus expression vector pFastBacHT (Invitrogen); 6xHis with TEV site, from the pFastBacHT vector (own knowledge); made in house; host or cells: Spodoptera frugiperda (Sf9) insect cells, baculovirus; crude cell lysate
T1 sequence (B0ZB56 1-360): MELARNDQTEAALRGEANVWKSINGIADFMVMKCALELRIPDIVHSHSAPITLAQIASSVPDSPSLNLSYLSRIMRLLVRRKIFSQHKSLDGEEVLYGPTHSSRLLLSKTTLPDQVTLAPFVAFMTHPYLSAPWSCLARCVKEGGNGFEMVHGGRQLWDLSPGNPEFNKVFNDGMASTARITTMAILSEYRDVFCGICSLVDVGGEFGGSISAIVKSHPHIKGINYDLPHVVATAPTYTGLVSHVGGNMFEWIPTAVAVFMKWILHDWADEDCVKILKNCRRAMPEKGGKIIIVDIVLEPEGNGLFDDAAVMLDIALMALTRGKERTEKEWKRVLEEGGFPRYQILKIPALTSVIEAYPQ
Source text: (§1) The open reading frame of each enzyme was cloned into the baculovirus expression vector pFastBacHT (Invitrogen) and the resulting bacmid generated using the Bac-to-Bac system (Invitrogen). The bacmid was used to transfect Spodoptera frugiperda (Sf9) insect cells. After amplification of the baculovirus through several passages, insect cell monolayers were infected, cultivated for 2-4 days and then centrifuged to separate cells from culture media. Cell pellets were lysed and aliquots used directly in enzyme assay containing ^14C—S-adenosyl methionine (^14C-SAM) as a methyl donor and various phenolic and phenylpropanoid natural products as substrates. Methylation activity was measured by the extraction of the enzyme reaction with ethyl acetate and its analysis by scintillation counting. In this assay, ^14C-methylation of one of the proffered substrates is indicated by the presence of radioactivity in the ethyl acetate extract.

[2] = target: T2, HIOMT1 (OMT1) O-methyltransferase (Humulus lupulus, UniProt B0ZB55, L311X); test: 14C-SAM methylation enzyme assay with recombinant HIOMT1 (OMT1) insect cell lysate; type: biochemical; conditions: for methylation of substrate by OMT1: recombinant enzyme from Sf9 insect cell lysate, 14C-SAM methyl donor, ethyl acetate extract, scintillation counting
T2 construct: The open reading frame of each enzyme was cloned into the baculovirus expression vector pFastBacHT (Invitrogen); 6xHis with TEV site, from the pFastBacHT vector (own knowledge); made in house; host or cells: Spodoptera frugiperda (Sf9) insect cells, baculovirus; crude cell lysate
Procedure: FIG. 3. Enzymatic activity of HIOMT1 showing that this enzyme methylates desmethylxanthohumol to produce xanthohumol. […] Recombinant HIOMT1 was expressed in insect cells and crude cell lysate used for enzymatic assay. (A) Radio-HPLC analysis of reaction products from empty vector control lysate incubated with ^14C-SAM and desmethylxanthohumol. (B) Radio-HPLC analysis of reaction products from HIOMT1 lysate incubated with ^14C-SAM. (C) Radio-HPLC analysis of reaction products HIOMT1 lysate incubated with ^14C-SAM and desmethylxanthohumol showing that xanthohumol is formed (D) Reversed-phase HPLC analysis of authentic xanthohumol.
as §1

SMILES	methylation of substrate by OMT2 [1]	methylation by HIOMT1, reaction product by radio-HPLC (FIG. 3) ([2]; crude insect cell lysate, 14C-SAM, radio-HPLC analysis, product xanthohumol)	methylation of substrate by OMT1 [2]
O=C(/C=C/c1ccc(O)cc1)c1ccccc1O [2′,4-dihydroxychalcone]	methylate	–	–
O=C(/C=C/c1ccc(O)c(O)c1)c1ccc(O)cc1O [butein]	methylate	–	–
Oc1ccccc1O [catechol]	methylate	–	–
O=C(/C=C/c1ccc(O)cc1)c1c(O)cc(O)cc1O [chalconaringenin]	methylate	–	–
CC(C)=CCc1c(O)cc(O)c(C(=O)/C=C/c2ccc(O)cc2)c1O [desmethylxanthohumol]	capable of using desmethylxanthohumol as a substrate; also recorded: methylate	methylates desmethylxanthohumol to form xanthohumol	capable of using desmethylxanthohumol as a substrate; also recorded: methylate
C=CCc1ccc(O)c(OC)c1 [eugenol]	methylate	–	–
O=c1c(-c2ccc(O)cc2)coc2cc(O)cc(O)c12 [genistein]	methylate	–	–
COc1ccccc1O [guaiacol]	methylate	–	–
O=C(/C=C/c1ccc(O)cc1)c1ccc(O)cc1O [isoliquiritigenin]	methylate	–	–
Cc1cc(O)cc(O)c1 [orcinol]	methylate	–	–
Oc1cccc(O)c1 [resorcinol]	methylate	–	–
Oc1ccc(C=Cc2cc(O)cc(O)c2)cc1 [resveratrol]	methylate	–	–
COc1cc(O)c(C(=O)/C=C/c2ccc(O)cc2)c(O)c1CC=C(C)C [xanthogalenol]	–	–	methylate
COc1cc(O)c(CC=C(C)C)c(O)c1C(=O)C=Cc1ccc(O)cc1 [xanthohumol, 1-[2,4-dihydroxy-6-methoxy-3-(3-methylbut-2-enyl)phenyl]-3-(4-hydroxyphenyl)-prop-2-en-1-one]	methylate	–	–
